Measured values: ChEMBL document CHEMBL5143570, “Development of naringenin-O-carbamate derivatives as multi-target-directed liagnds for the treatment of Alzheimer's disease” (Bioorg Med Chem Lett, 2022)
The source made the active and inactive calls. The rule behind the calls is not given here.

Legend:
[1] = Antioxidant activity assessed as trolox equivalent of ORAC radical scavenging activity by ORAC-FL assay; format: functional
[2] = biological target: T1, Acetylcholinesterase (Rattus norvegicus, UniProt P37136); assay: Inhibition of rat cortex AChE using acetylthiocholine as substrate incubated for 15 mins by DTNB reagent based Ellman's method; format: tissue-based
T1 sequence (P37136 whole entry): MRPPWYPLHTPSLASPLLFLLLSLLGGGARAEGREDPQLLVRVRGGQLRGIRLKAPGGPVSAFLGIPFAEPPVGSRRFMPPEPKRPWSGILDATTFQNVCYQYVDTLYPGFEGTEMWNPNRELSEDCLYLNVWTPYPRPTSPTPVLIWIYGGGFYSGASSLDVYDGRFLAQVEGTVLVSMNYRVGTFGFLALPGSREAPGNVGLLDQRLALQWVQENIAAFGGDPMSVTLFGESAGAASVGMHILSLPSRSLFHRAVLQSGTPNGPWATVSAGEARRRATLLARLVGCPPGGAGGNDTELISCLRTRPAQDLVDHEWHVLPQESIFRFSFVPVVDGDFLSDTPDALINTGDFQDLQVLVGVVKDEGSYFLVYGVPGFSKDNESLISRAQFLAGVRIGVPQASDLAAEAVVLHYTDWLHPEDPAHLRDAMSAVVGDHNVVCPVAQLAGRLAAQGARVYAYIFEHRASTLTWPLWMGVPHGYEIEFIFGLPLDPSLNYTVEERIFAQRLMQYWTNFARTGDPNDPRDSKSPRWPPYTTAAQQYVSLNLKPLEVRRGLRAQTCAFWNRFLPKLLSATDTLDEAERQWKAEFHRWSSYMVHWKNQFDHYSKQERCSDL

[3] = biological target: Butyrylcholinesterase (Rattus norvegicus, UniProt Q9JKC1); assay: Inhibition of rat serum Butyrylcholine esterase using butyrylthiocholine as substrate incubated for 15 mins by DTNB reagent based Ellman's method; format: cell-free
[4] = species on record: Rattus norvegicus; assay: Selectivity index, ratio of IC50 for inhibition of rat serum butyrylcholine esterase to IC50 for inhibition of rat cortex AChE
[5] = biological target: T2, Acetylcholinesterase (Homo sapiens, UniProt P22303); assay: Inhibition of human erythrocyte AChE using acetylthiocholine as substrate incubated for 15 mins by DTNB reagent based Ellman's method; format: cell-based
[6] = biological target: Cholinesterase (Homo sapiens, UniProt P06276); assay: Inhibition of human serum BuChE using butyrylthiocholine as substrate incubated for 15 mins by DTNB reagent based Ellman's method; format: cell-free
[7] = species on record: Homo sapiens; assay: Selectivity index, ratio of IC50 for inhibition of human serum BuChE to IC50 for inhibition of human erythrocyte AChE
[8] = test system: PC-12; assay: Neuroprotective activity against H2O2-induced cytotoxicity in rat PC-12 cells assessed as increase in cell viability at 100 uM by MTT assay relative to control; format: functional, cell-based
[9] = biological target: Amyloid-beta precursor protein (Homo sapiens) (UniProt P05067); assay: Inhibition of amyloid beta (1 to 42 ) (unknown origin) self-induced aggregation at 25 uM by thioflavin-T fluorescence method relative to control
[10] = biological target: T2, Acetylcholinesterase; assay: Pseudo-irreversible inhibition of human AChE assessed as restoration of enzyme activity at 0.1 time of IC50 concentration incubated for 120 mins by dilution method relative to control; parameters: scale not given: the % may be the effect or the level left
[11] = biological target: Amyloid-beta precursor protein (Homo sapiens) (UniProt P05067); assay: Inhibition of amyloid beta (1 to 42) (unknown origin) self-induced fibril formation at 25 uM incubated for 24 hrs by transmission electron microscopic analysis
[12] = Cytotoxicity against mouse HT-22 cells assessed as reduction in cell viability by MTT assay; format: toxicity, cell-based
[13] = Effect on tau protein expression in pRK5-GFP-Tau plasmid transfected mouse HT-22 cells assessed as reduction in fluorescence intensity at 5 uM incubated for 24 hrs by fluorescence microscopic analysis (reference value: 36.8); format: functional
[14] = Effect on tau protein expression in pRK5-GFP-Tau plasmid transfected mouse HT-22 cells assessed as reduction in fluorescence intensity at 10 uM incubated for 24 hrs by fluorescence microscopic analysis (reference value: 36.8); format: functional
[15] = Effect on tau protein expression in pRK5-GFP-Tau plasmid transfected mouse HT-22 cells assessed as reduction in fluorescence intensity at 20 uM incubated for 24 hrs by fluorescence microscopic analysis (reference value: 36.8); format: functional
[16] = test system: HT-22; assay: Effect on tau protein expression in pRK5-GFP-Tau plasmid transfected mouse HT-22 cells assessed as fluorescence intensity by measuring decrease in GFP level at 5 to 20 uM incubated for 24 hrs by western blot analysis; format: functional, cell-based; settings: dose 5-20 µM
[17] = Effect on tau protein expression in pRK5-GFP-Tau P301L plasmid transfected mouse HT-22 cells assessed as reduction in fluorescence intensity at 5 uM by fluorescence microscopic analysis (reference value: 35.0); format: functional
[18] = Effect on tau protein expression in pRK5-GFP-Tau P301L plasmid transfected mouse HT-22 cells assessed as reduction in fluorescence intensity at 10 uM by fluorescence microscopic analysis (reference value: 35.0); format: functional
[19] = Effect on tau protein expression in pRK5-GFP-Tau P301L plasmid transfected mouse HT-22 cells assessed as reduction in fluorescence intensity at 20 uM by fluorescence microscopic analysis (reference value: 35.0); format: functional
[20] = Effect on APP protein expression in pEGFP-N1-APP plasmid transfected mouse HT-22 cells assessed as decrease in fluorescence intensity at 5 uM incubated for 24 hrs by fluorescence microscopic analysis (reference value: 30.7); format: functional
[21] = Effect on APP protein expression in pEGFP-N1-APP plasmid transfected mouse HT-22 cells assessed as decrease in fluorescence intensity at 10 uM incubated for 24 hrs by fluorescence microscopic analysis (reference value: 30.7); format: functional
[22] = Effect on APP protein expression in pEGFP-N1-APP plasmid transfected mouse HT-22 cells assessed as decrease in fluorescence intensity at 20 uM incubated for 24 hrs by fluorescence microscopic analysis (reference value: 30.7); format: functional
[23] = test system: HT-22; assay: Effect on APP protein expression in pEGFP-N1-APP plasmid transfected mouse HT-22 cells assessed as fluorescence intensity by measuring decrease in GFP level incubated for 24 hrs by western blot analysis; format: functional, cell-based; settings: dose 5-20 µM, DDE = dose-dependent effect
[24] = test system: PC-12; assay: Cytotoxicity against rat PC-12 cells assessed as reduction in cell viability measured upto 40 uM incubated for 72 hrs by MTT assay; format: toxicity, cell-based; settings: pc-12, 72 h
[25] = test system: PC-12; assay: Neuroprotective activity against H2O2-induced cytotoxicity in rat PC-12 cells assessed as increase in cell viability at 5 uM by MTT assay relative to control; format: functional
[26] = test system: PC-12; assay: Neuroprotective activity against H2O2-induced cytotoxicity in rat PC-12 cells assessed as increase in cell viability at 10 uM by MTT assay relative to control; format: functional

Sequence of Butyrylcholinesterase (Q9JKC1 whole entry): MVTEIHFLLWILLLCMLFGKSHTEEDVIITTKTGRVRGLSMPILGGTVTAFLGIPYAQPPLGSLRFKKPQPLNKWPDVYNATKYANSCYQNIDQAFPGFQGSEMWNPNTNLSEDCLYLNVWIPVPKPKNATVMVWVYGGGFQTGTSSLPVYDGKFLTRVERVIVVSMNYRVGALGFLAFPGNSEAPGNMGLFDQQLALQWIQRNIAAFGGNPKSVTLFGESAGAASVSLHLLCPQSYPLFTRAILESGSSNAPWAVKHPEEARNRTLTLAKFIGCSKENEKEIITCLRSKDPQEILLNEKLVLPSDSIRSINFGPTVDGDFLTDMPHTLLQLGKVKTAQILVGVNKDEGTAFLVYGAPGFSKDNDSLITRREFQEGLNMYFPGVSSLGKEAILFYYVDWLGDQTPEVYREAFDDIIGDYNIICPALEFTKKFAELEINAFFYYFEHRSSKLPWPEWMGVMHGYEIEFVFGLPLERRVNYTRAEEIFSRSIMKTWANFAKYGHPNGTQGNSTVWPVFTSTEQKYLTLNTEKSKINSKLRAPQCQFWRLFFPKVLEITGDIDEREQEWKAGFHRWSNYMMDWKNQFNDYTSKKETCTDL
Sequence of Cholinesterase (P06276 whole entry): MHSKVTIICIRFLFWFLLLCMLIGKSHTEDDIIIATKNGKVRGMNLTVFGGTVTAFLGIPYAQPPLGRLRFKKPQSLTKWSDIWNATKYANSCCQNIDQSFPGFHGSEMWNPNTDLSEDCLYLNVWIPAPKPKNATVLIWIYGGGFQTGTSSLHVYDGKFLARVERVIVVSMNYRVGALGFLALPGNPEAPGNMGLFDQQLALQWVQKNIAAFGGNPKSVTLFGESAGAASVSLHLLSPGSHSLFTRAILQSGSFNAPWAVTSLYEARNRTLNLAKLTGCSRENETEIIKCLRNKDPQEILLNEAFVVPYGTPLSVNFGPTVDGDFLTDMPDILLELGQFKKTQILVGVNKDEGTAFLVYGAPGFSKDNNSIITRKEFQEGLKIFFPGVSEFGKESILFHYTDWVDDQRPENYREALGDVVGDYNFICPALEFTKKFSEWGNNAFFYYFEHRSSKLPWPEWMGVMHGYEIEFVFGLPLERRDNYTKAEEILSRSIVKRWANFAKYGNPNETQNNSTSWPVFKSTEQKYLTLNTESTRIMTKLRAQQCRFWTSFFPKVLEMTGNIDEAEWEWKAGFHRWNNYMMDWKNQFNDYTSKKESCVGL
T2 sequence (P22303 whole entry): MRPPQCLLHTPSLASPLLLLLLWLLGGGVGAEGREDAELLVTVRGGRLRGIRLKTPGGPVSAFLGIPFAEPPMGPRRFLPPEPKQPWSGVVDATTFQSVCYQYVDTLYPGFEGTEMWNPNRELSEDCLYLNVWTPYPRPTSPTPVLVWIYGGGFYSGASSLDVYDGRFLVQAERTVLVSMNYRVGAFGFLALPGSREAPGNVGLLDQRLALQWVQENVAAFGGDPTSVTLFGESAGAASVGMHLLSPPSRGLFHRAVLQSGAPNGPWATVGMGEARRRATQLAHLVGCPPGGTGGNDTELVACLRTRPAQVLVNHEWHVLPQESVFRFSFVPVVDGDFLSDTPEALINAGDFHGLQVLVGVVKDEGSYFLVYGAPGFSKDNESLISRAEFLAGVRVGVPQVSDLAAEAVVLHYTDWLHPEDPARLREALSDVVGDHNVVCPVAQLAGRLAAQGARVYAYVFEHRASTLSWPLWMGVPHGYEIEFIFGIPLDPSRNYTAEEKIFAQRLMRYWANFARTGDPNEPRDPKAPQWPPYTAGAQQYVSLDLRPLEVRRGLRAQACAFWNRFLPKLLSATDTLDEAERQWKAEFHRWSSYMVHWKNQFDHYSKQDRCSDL
Sequence of Amyloid-beta precursor protein (Homo sapiens) (P05067 whole entry): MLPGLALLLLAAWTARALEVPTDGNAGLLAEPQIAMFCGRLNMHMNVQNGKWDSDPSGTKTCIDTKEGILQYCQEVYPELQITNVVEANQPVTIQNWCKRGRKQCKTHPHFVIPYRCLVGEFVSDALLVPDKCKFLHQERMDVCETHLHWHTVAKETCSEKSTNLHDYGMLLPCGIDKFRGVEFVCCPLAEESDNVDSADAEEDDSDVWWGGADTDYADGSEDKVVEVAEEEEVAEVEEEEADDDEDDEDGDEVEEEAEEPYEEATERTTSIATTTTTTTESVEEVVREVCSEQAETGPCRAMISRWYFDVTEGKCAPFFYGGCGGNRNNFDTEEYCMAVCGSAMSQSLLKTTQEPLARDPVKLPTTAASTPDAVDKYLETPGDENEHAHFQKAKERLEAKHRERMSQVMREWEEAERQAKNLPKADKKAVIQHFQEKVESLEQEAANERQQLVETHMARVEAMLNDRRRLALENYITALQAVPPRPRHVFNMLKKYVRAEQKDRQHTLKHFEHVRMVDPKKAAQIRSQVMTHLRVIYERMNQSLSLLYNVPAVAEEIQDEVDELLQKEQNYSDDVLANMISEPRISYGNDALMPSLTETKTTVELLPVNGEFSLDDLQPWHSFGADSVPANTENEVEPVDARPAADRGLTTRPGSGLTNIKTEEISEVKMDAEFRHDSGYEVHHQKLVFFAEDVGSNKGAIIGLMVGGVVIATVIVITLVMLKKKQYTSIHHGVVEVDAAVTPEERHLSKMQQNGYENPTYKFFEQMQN

Compound	Activity [1]	IC50 [2]	IC50 [3]	Ratio IC50 [4]	further results
CON(C)C(=O)Oc1ccc(-c2cc(=O)c3c(O)cc(OC(=O)N(C)OC)cc3o2)cc1	1.1	9.3 µM	19.7 µM	2.1	
CCN(C)C(=O)Oc1ccc(-c2cc(=O)c3c(OC(=O)N(C)CC)cc(OC(=O)N(C)CC)cc3o2)cc1	0.2	6.9 µM	14.3 µM	2.1	IC50 [5]: 12.3 µM; IC50 [6]: 20.6 µM; Ratio IC50 [7]: 1.7
CCN(CC)C(=O)Oc1cc(O)c2c(c1)OC(c1ccc(O)cc1)CC2=O (stereo not given)	2.5	15.1 µM	26.7 µM	1.8	
CON(C)C(=O)Oc1ccc(C2CC(=O)c3c(O)cc(OC(=O)N(C)OC)cc3O2)cc1 (stereo not given)	1.2	9.9 µM	18.1 µM	1.8	
CCN(C)C(=O)Oc1ccc(-c2coc3cc(OC(=O)N(C)CC)cc(O)c3c2=O)cc1	1.2	11.2 µM	29.3 µM	2.6	
VITAMIN E					Activity [8]: 67.3%
CCN(C)C(=O)Oc1cc(O)c2c(c1)OC(c1ccc(O)cc1)CC2=O (stereo not given)	2.7	11.6 µM	28.2 µM	2.4	
CON(C)C(=O)Oc1ccc(-c2coc3cc(OC(=O)N(C)OC)cc(O)c3c2=O)cc1	1	13.5 µM	27.1 µM	2	
CCN(C)C(=O)Oc1ccc(-c2coc3cc(OC(=O)N(C)CC)cc(OC(=O)N(C)CC)c3c2=O)cc1	0.3	8.7 µM	16.9 µM	1.9	
O=c1c(-c2ccc(O)cc2)coc2cc(O)cc(O)c12 [GENISTEIN]	6.2	> 50 µM	> 50 µM		
O=C1CC(c2ccc(OC(=O)N3CCOCC3)cc2)Oc2cc(OC(=O)N3CCOCC3)cc(O)c21 (stereo not given)	1	11.3 µM	23.6 µM	2.1	
O=C1CC(c2ccc(O)cc2)Oc2cc(O)cc(O)c21 (stereo not given)	5.1	> 50 µM	> 50 µM		
CCN(C)C(=O)Oc1ccc(C2CC(=O)c3c(OC(=O)N(C)CC)cc(OC(=O)N(C)CC)cc3O2)cc1 (stereo not given)	0.2	6.7 µM	20.2 µM		IC50 [5]: 10.6 µM; IC50 [6]: 24.5 µM; inhibition [9]: 42.1%; Activity [10]: 75.9%; inhibition [11]: Active; IC50 [12]: 215 µM; Flu intensity [13]: 23.7; Flu intensity [14]: 20.7; Flu intensity [15]: 6.48; Activity [16]: Active; Flu intensity [17]: 18.7; Flu intensity [18]: 17.6; Flu intensity [19]: 16; Flu intensity [20]: 22.3; Flu intensity [21]: 22.1; Flu intensity [22]: 20.7; Activity [23]: Dde; Activity [24]: Non-Toxic; Activity [25]: 59.3%; Activity [26]: 64.1%
CCN(C)C(=O)Oc1ccc(-c2cc(=O)c3c(O)cc(OC(=O)N(C)CC)cc3o2)cc1	1.3	5.7 µM	15.6 µM	2.7	IC50 [5]: 7.9 µM; IC50 [6]: 18.7 µM; Ratio IC50 [7]: 2.4
O=c1cc(-c2ccc(O)cc2)oc2cc(O)cc(O)c12 [APIGENIN]	5.5	> 50 µM	> 50 µM		
CCN(C)C(=O)Oc1cccc([C@H](C)N(C)C)c1					Activity [10]: 76.3%
O=C1CC(c2ccc(OC(=O)N3CCCC3)cc2)Oc2cc(OC(=O)N3CCCC3)cc(O)c21 (stereo not given)	1.1	14.5 µM	19.8 µM	1.4	
CCN(CC)C(=O)Oc1ccc(C2CC(=O)c3c(O)cc(OC(=O)N(CC)CC)cc3O2)cc1 (stereo not given)	1.1	10.7 µM	22.4 µM	2.1	
CN(C)C(=O)Oc1ccc(C2CC(=O)c3c(O)cc(OC(=O)N(C)C)cc3O2)cc1 (stereo not given)	0.9	14.2 µM	26.5 µM		
O=C1CC(c2ccc(OC(=O)N(c3ccccc3)c3ccccc3)cc2)Oc2cc(OC(=O)N(c3ccccc3)c3ccccc3)cc(O)c21 (stereo not given)	1.1	18.2 µM	25.2 µM	1.4	
